According to PMC11002876, “KcsA-Kv1.x chimeras with complete ligand-binding sites provide improved predictivity for screening selective Kv1.x blockers” (The Journal of Biological Chemistry, 2024):
Where a SMILES comes first, the peptide text is derived from it.

Experiments:
[1] = system: human Kv1.3 channel (hKv1.3); type: cell-based; conditions: native peptides at 0.1 nM; human lymphocytes; Figs. 6A, S1
Protocol: (§1) Human Kv1.3 currents were recorded from activated peripheral blood mononuclear cells (see below) 3 to 4 days after activation. Heparinized human peripheral venous blood was obtained from healthy volunteers. Mononuclear cells were separated through Histopaque-1077 density gradient centrifugation. Collected cells were washed twice with Ca^2+- and Mg^2+-free Hanks’ solution containing 25 mM Hepes buffer, pH 7.4. Cells were cultured for 3 to 4 days in 24-well culture plates in a 5% CO2 incubator at 37 °C, in RPMI 1640 medium supplemented with 10% fetal calf serum (Sigma-Aldrich), 100 μg/ml penicillin, 100 μg/ml streptomycin, and 2 mM L-glutamine (density, 0.5 × 10^6 cells per ml). Phytohemagglutinin A (Sigma-Aldrich) was added to the medium at 10 μg/ml to amplify the Kv1.3 expression. Cells were washed gently twice with 2 ml of ECS for the patch-clamp experiments.
(§2) Conventional whole-cell patch-clamp electrophysiology was used to record ionic currents. Micropipettes were pulled from GC150F-7.5 borosilicate capillaries (Harvard Apparatus) with tip diameters between 0.5 and 1 μm resulting in a tip resistance of 2 to 8 MΩ in the extracellular (bath) solution. All measurements were carried out by using Axopatch 200B amplifier connected to a personal computer using Axon Digidata 1550A data acquisition hardware and Pclamp10.7 software (https://support.moleculardevices.com/s/article/Axon-pCLAMP-10-Electrophysiology-Data-Acquisition-Analysis-Software-Download-Page). The holding potential was −120 mV. Records were discarded when leak at the holding potential was >10% of peak current at the test potential. Experiments were performed at room temperature (20–24 °C). Before analysis, whole-cell current traces were corrected for ohmic leakage and digitally filtered with a three-point boxcar smoothing filter.
Solutions: all salts and components of the solutions were purchased from Sigma Aldrich. […]
Native peptides, phage-expressed peptides, and positive controls used for them were dissolved in ECS supplemented with 0.1 mg/ml bovine serum albumin (BSA; Sigma-Aldrich Hungary). Bath perfusion around the measured cell with different extracellular solutions was achieved using a gravity flow micro perfusion system using a rate of 0.5 ml/min. […]
(§3) Voltage protocols: For measurement of Kv1.1 to 1.3 currents, voltage steps to +50 mV were applied from a holding potential of −120 mV and the peak current was measured every 15 s. […] The remaining current fraction at a given molar concentration was calculated as I/I0, where I0 is the peak current in the absence and I is the peak current at equilibrium block or […] after ∼2 min perfusion by the investigated peptide/phage.

[2] = system: human Kv1.3 channel (hKv1.3); assay: Whole-cell patch-clamp of phage-displayed toxins, hKv1.3 in human lymphocytes; type: cell-based; conditions: for estimated relative potency in phage-displayed form: from phage concentrations required to reach 50% block of hKv1.3 current, Vm24 = 1, Fig. 9B; for inhibition of Kv1.3 current in phage-displayed form, in words: phage-displayed peptide, DDDKTX1- and KTX1-phage at 3.6 × 10^13 particle/ml
Protocol: as §1, §2
Solutions: all salts and components of the solutions were purchased from Sigma Aldrich. The extracellular (bath) solution (ECS) contained 145 mM NaCl, 5 mM KCl, 2.5 mM CaCl2, 1 mM MgCl2, 10 mM Hepes, and 5.5 mM glucose (pH 7.35 with NaOH), while the intracellular (pipette) solution (ICS) contained 140 mM KF, 2 mM MgCl2, 1 mM CaCl2, 11 mM EGTA, and 10 mM Hepes (pH 7.22 with KOH). The osmolarity of the ECS and ICS were 302 mOsM.
Native peptides, phage-expressed peptides, and positive controls used for them were dissolved in ECS supplemented with 0.1 mg/ml bovine serum albumin (BSA; Sigma-Aldrich Hungary). Bath perfusion around the measured cell with different extracellular solutions was achieved using a gravity flow micro perfusion system using a rate of 0.5 ml/min. Excess fluid was removed continuously.
as §3, with “s. For Kv1.3 currents, 15-ms-long depolarizing pulses were applied. For Kv1.1, 50-ms-long–activating stimuli were used. Kv1.2 currents were evoked by 200-ms-long pulses.” for “s.”
Phage display test solutions were prepared according to routine phage display protocols ([62]). Phosphorylated and annealed oligonucleotides encoding the peptide construct were ligated into linearized pAS62 phagemid vector (https://patents.google.com/patent/WO2022144560A1/en) at a vector/insert ratio of 1:3. The final phagemid construct harbored a signal sequence followed by the peptide of interest, a linker sequence ([…]), and the C-terminal part of the P3 coat protein (amino acids: 216-424 of NP_510891.1). Chemically competent XL1-Blue E. coli cells (2022249, Agilent) were transformed with the ligation product and then streaked onto ampicillin (100 μg/ml) containing LB/Amp plates and incubated for 16 h at 37 °C.

KCa3.1 = conditions: cited from earlier work
Text: (§4) Peptide toxins of venomous animal origin as lead molecules for optimization may offer an advantage over small molecules in terms of potentially greater affinity and specificity. These miniproteins are usually up to 50 amino acids in length and can adopt distinct conformation with secondary structural elements stabilized by several disulfide bonds ([9], [10], [11]). Due to their considerable surface area, miniproteins can form stable complexes with target proteins through extensive interaction surfaces ([12], [13]). The miniprotein Kv1.3 blocker drug candidate, Dalazatide—a synthetic derivative ...

Kv1.2 = conditions: cited from earlier work
Text: as §4

mouse Kv1.1 = conditions: cited from earlier work
Text: as §4

Structure (SMILES)	rank order of blocking of native Kv1.3 [1]	estimated relative potency in phage-displayed form [2]	inhibition of Kv1.3 current in phage-displayed form, in words [2]	selectivity for Kv1.3 over KCa3.1 (KCa3.1)	selectivity for Kv1.3 over Kv1.2 (Kv1.2)	selectivity for Kv1.3 over mouse Kv1.1 (mouse Kv1.1)
CC[C@H](C)[C@@H]1NC(=O)CNC(=O)[C@H](Cc2ccccc2)NC(=O)[C@H](CCC(N)=O)NC(=O)[C@H](C)NC(=O)[C@H](CCCCN)NC(=O)[C@@H]2CSSC[C@@H](C(=O)N[C@@H](Cc3ccc(O)cc3)C(=O)N3CCC[C@H]3C(=O)N[C@@H](Cc3c[nH]cn3)C(=O)O)NC(=O)[C@H](CCCCN)NC(=O)[C@@H]3CSSC[C@H](NC(=O)[C@H](CCC(N)=O)NC(=O)[C@H](CCCCN)NC(=O)[C@@H]4CCCN4C(=O)[C@H](CO)NC(=O)[C@H]([C@@H](C)O)NC(=O)[C@@H](NC(=O)[C@H](CCCCN)NC(=O)[C@@H](NC(=O)[C@H](CC(=O)O)NC(=O)[C@@H](NC(=O)[C@@H](NC(=O)[C@@H](N)[C@@H](C)O)C(C)C)[C@@H](C)CC)C(C)C)CSSC[C@H](NC(=O)[C@H](CCCCN)NC(=O)[C@H](C)NC(=O)CNC(=O)[C@H](C)NC(=O)[C@H](CCCNC(=N)N)NC1=O)C(=O)N[C@@H](CCSC)C(=O)N[C@@H](CC(N)=O)C(=O)NCC(=O)N[C@@H](CCCCN)C(=O)N3)C(=O)N[C@@H](CC(C)C)C(=O)N1CCC[C@H]1C(=O)N1CCC[C@H]1C(=O)N2 [HgTx1, Hongotoxin-1] (HELM PEPTIDE1{T.V.I.D.V.K.C.T.S.P.K.Q.C.L.P.P.C.K.A.Q.F.G.I.R.A.G.A.K.C.M.N.G.K.C.K.C.Y.P.H}$PEPTIDE1,PEPTIDE1,7:R3-29:R3|PEPTIDE1,PEPTIDE1,13:R3-34:R3|PEPTIDE1,PEPTIDE1,17:R3-36:R3$$$V2.0; N-terminus and C-terminus assumed)	Vm24 > HgTX1 > KTX1	1/30	significant inhibition	–	–	–
CC[C@H](C)[C@H](NC(=O)[C@H](CCC(=O)O)NC(=O)[C@@H](NC(=O)CN)C(C)C)C(=O)N[C@@H](CC(N)=O)C(=O)N[C@H](C(=O)N[C@@H](CCCCN)C(=O)N[C@H]1CSSC[C@@H]2NC(=O)[C@H](CCCCN)NC(=O)CNC(=O)[C@H](Cc3ccccc3)NC(=O)[C@H](CCCNC(=N)N)NC(=O)[C@H](CCSC)NC(=O)CNC(=O)[C@H](C)NC(=O)[C@H](CC(=O)O)NC(=O)[C@H](CCCCN)NC(=O)[C@@H]3CSSC[C@@H](C(=O)N[C@H](C(=O)N4CCC[C@H]4C(=O)N[C@@H](CCCCN)C(=O)O)[C@@H](C)O)NC(=O)[C@H](Cc4c[nH]cn4)NC(=O)[C@H](CSSC[C@H](NC(=O)[C@H](CCC(N)=O)NC(=O)[C@@H]4CCCN4C(=O)[C@H](CO)NC(=O)CNC(=O)[C@H](CO)NC1=O)C(=O)N[C@@H](CC(C)C)C(=O)N[C@@H](CCCCN)C(=O)N1CCC[C@H]1C(=O)N3)NC(=O)[C@H](CCCCN)NC(=O)[C@H](CCCNC(=N)N)NC(=O)[C@H](CC(N)=O)NC(=O)[C@H](CCSC)NC2=O)C(C)C [KTX1, Kaliotoxin-1]	Vm24 > HgTX1 > KTX1	< 1/600	significant inhibition	–	–	–
CC[C@H](C)[C@H](NC(=O)[C@H](C)NC(=O)[C@H](C)NC(=O)[C@H](C)N)C(=O)N[C@@H](CO)C(=O)N[C@H]1CSSC[C@@H]2NC(=O)[C@H](CCCCN)NC(=O)CNC(=O)[C@H](CC(N)=O)NC(=O)[C@H](CCCCN)NC(=O)[C@@H]3CSSC[C@@H](C(N)=O)NC(=O)[C@H](Cc4ccc(O)cc4)NC(=O)[C@H](Cc4ccc(O)cc4)NC(=O)[C@@H]4CSSC[C@H](NC(=O)[C@H](CCCCN)NC(=O)[C@@H]5CCCN5C(=O)[C@@H]5CCCN5C(=O)[C@H](CSSC[C@H](NC(=O)[C@H](CCCCN)NC(=O)[C@H](CCCNC(=N)N)NC(=O)[C@H](CC(N)=O)NC(=O)[C@H](CCSC)NC2=O)C(=O)N[C@@H](CCCCN)C(=O)N4)NC(=O)[C@H](CCC(=O)O)NC(=O)[C@@H]2CCCN2C(=O)[C@H](CO)NC(=O)CNC(=O)[C@H](C(C)C)NC1=O)C(=O)N[C@@H](CCCNC(=N)N)C(=O)N[C@@H](C)C(=O)N[C@@H](CCC(N)=O)C(=O)NCC(=O)N3 [Vm24, Vm24 toxin]	Vm24 > HgTX1 > KTX1	approximately 1	significant inhibition	limited selectivity	limited selectivity	limited selectivity
